{"source": "patent US20230082430A1", "about": "(C4 Therapeutics, Inc., priority 2019, published 2023)", "note": "pIC50: −log10 of the molar value. Counter-ions that a name gives are not always drawn.", "data": [{"tested_on": "NCIH929.1 cells", "assay": "Cell viability assay for Table 2 (CellTiter-Glo 2.0, ATP quantification, 96 hr)", "format": "cell-based", "settings": "96 h, NCIH929.1 cell viability, 96 hr, top concentration 1 μM, 14 points half log titration; read-out: IC50", "source_text": "(§1) Cell Viability Assay for Table 2\n(§2) CellTiter-Glo® 2.0 Assay was purchased from Promega (Madison, Wis., USA). NCIH929.1 cell line was purchased from ATCC (Manassas, Va., USA). Cell culture flasks and 384-well microplates were acquired from VWR (Radnor, Pa., USA).", "values": [{"compound": "O=C1CCC(N2C(=O)c3cccc4c(Cc5ccc(CN6CCC7(CCCO7)CC6)nc5)ccc2c34)C(=O)N1", "note": "(racemic) [Compound 268, 3-[6-[[6-(1-oxa-8-azaspiro[4.5]decan-8-ylmethyl)-3-pyridyl]methyl]-2-oxo-benzo[cd]indol-1-yl]piperidine-2,6-dione]", "pIC50": "> 9.00"}, {"compound": "O=C1CCC(N2C(=O)c3cccc4c(Cc5ccc(CN6CCC(Oc7ccc(F)cc7)CC6)cc5)ccc2c34)C(=O)N1", "note": "(centres unmarked) [Compound 258, 3-(6-(4-((4-(4-fluorophenoxy)piperidin-1-yl)methyl)benzyl)-2-oxobenzo[cd]indol-1(2H)-yl)piperidine-2,6-dione]", "pIC50": "> 9.00"}, {"compound": "N#CC1(CN2CCC(n3cc(Cc4ccc5c6c(cccc46)C(=O)N5C4CCC(=O)NC4=O)cn3)CC2)CC1", "note": "(centres unmarked) [Compound 199, 1-[[4-[4-[[1-(2,6-dioxo-3-piperidyl)-2-oxo-benzo[cd]indol-6-yl]methyl]pyrazol-1-yl]-1-piperidyl]methyl]cyclopropanecarbonitrile]", "pIC50": "> 9.00"}, {"compound": "O=C1CC[C@H](N2C(=O)c3cccc4c(Cc5ccc(CN6CCOCC6)cc5)ccc2c34)C(=O)N1", "note": "(single isomer, unassigned) [Compound 219, 3-(6-(4-(morpholinomethyl)benzyl)-2-oxobenzo[cd]indol-1(2H)-yl)piperidine-2,6-dione]", "pIC50": "> 9.00"}, {"compound": "Nc1ccc2c3c(cccc13)C(=O)N2C1CCC(=O)NC1=O", "note": "(centres unmarked) [Compound 144, 3-(6-Amino-2-oxo-2H-benzo[cd]indol-1-yl)-piperidine-2,6-dione hydrochloride]", "pIC50": "> 6.00"}, {"compound": "CC(C)(C)OC(=O)N1CCC(n2cc(C(O)c3ccc4c5c(cccc35)C(=O)N4C3CCC(=O)NC3=O)cn2)CC1", "note": "(centres unmarked) [Compound 266, tert-butyl 4-[4-[[1-(2,6-dioxo-3-piperidyl)-2-oxo-benzo[cd]indol-6-yl]-hydroxy-methyl]pyrazol-1-yl]piperidine-1-carboxylate]", "pIC50": "> 9.00"}, {"compound": "CC1(CN2CCC(c3ccc(Cc4ccc5c6c(cccc46)C(=O)N5C4CCC(=O)NC4=O)cc3)CC2)CCC1", "note": "(centres unmarked) [Compound 170, 3-[6-[[4-[1-[(1-methylcyclobutyl)methyl]-4-piperidyl]phenyl]methyl]-2-oxo-benzo[cd]indol-1-yl]piperidine-2,6-dione]", "pIC50": "> 9.00"}, {"compound": "N#Cc1ccc(N2CCN(Cc3ccc(Cc4ccc5c6c(cccc46)C(=O)N5C4CCC(=O)NC4=O)cc3)CC2)c(F)c1", "note": "(single isomer, unassigned) [Compound 184, 4-(4-(4-((1-(2,6-dioxopiperidin-3-yl)-2-oxo-1,2-dihydrobenzo[cd]indol-6-yl)methyl)benzyl)piperazin-1-yl)-3-fluorobenzonitrile]", "pIC50": "> 9.00"}, {"compound": "CC1(C(=O)N2CCC(c3cn(Cc4ccc5c6c(cccc46)C(=O)N5C4CCC(=O)NC4=O)nn3)CC2)CCC1", "note": "(centres unmarked) [Compound 125, 3-[6-[[4-[1-(1-methylcyclobutanecarbonyl)-4-piperidyl]triazol-1-yl]methyl]-2-oxo-benzo[cd]indol-1-yl]piperidine-2,6-dione]", "pIC50": "> 9.00"}, {"compound": "O=C1CCC(N2C(=O)c3cccc4c(Cc5cnn(C6CCN([C@H]7CCC8(CCC8)C7)CC6)c5)ccc2c34)C(=O)N1", "note": "(some centres unmarked) [Compound 242]", "pIC50": "> 9.00"}, {"compound": "CC(C)(C)CN1CCC(n2cc(Cc3ccc4c5c(cccc35)C(=O)N4C3CCC(=O)NC3=O)cn2)CC1", "note": "(centres unmarked) [Compound 63, 3-(6-((1-(1-neopentylpiperidin-4-yl)-1H-pyrazol-4-yl)methyl)-2-oxobenzo[cd]indol-1(2H)-yl)piperidine-2,6-dione]", "pIC50": "> 9.00"}, {"compound": "CC(=O)N1CCN(Cc2ccc(Cc3ccc4c5c(cccc35)C(=O)N4C3CCC(=O)NC3=O)cc2)CC1", "note": "(centres unmarked) [Compound 108, 3-(6-(4-((4-acetylpiperazin-1-yl)methyl)benzyl)-2-oxobenzo[cd]indol-1(2H)-yl)piperidine-2,6-dione]", "pIC50": "> 9.00"}, {"compound": "CC(C)(C)OC(=O)N1CCC(n2cc(C(N)c3ccc4c5c(cccc35)C(=O)N4C3CCC(=O)NC3=O)cn2)CC1", "note": "(centres unmarked) [Compound 154, tert-butyl 4-(4-(amino(1-(2,6-dioxopiperidin-3-yl)-2-oxo-1,2-dihydrobenzo[cd]indol-6-yl)methyl)-1H-pyrazol-1-yl)piperidine-1-carboxylate]", "pIC50": "> 9.00"}, {"compound": "CC(C)(C)C[C@H]1CC[C@H](n2cc(Cc3ccc4c5c(cccc35)C(=O)N4C3CCC(=O)NC3=O)cn2)CC1", "note": "(some centres unmarked) [Compound 260, 3-(6-((1-((1s,4s)-4-neopentylcyclohexyl)-1H-pyrazol-4-yl)methyl)-2-oxobenzo[cd]indol-1(2H)-yl)piperidine-2,6-dione]", "pIC50": "> 9.00"}, {"compound": "O=C1CCC(N2C(=O)c3cccc4c(Oc5ccc(CN6CCOCC6)cc5)ccc2c34)C(=O)N1", "note": "(centres unmarked) [Compound 273, 3-(6-(4-(morpholinomethyl)phenoxy)-2-oxobenzo[cd]indol-1(2H)-yl)piperidine-2,6-dione]", "pIC50": "> 7.00"}, {"compound": "CC1(n2cc(Cc3ccc4c5c(cccc35)C(=O)N4C3CCC(=O)NC3=O)cn2)CCN(c2ncccc2F)CC1", "note": "(centres unmarked) [Compound 126, 3-[6-[[1-[1-(3-fluoro-2-pyridyl)-4-methyl-4-piperidyl]pyrazol-4-yl]methyl]-2-oxo-benzo[cd]indol-1-yl]piperidine-2,6-dione]", "pIC50": "> 9.00"}, {"compound": "CC1(n2cc(Cc3ccc4c5c(cccc35)C(=O)N4C3CCC(=O)NC3=O)cn2)CCN(C(=O)C2(C(F)F)CC2)CC1", "note": "(centres unmarked) [Compound 76, 3-(6-((1-(1-(1-(difluoromethyl)cyclopropane-1-carbonyl)-4-methylpiperidin-4-yl)-1H-pyrazol-4-yl)methyl)-2-oxobenzo[cd]indol-1(2H)-yl)piperidine-2,6-dione]", "pIC50": "> 9.00"}, {"compound": "N#Cc1ccc(N2CCN(C3(c4ccc(Cc5ccc6c7c(cccc57)C(=O)N6C5CCC(=O)NC5=O)cc4)CC3)CC2)c(F)c1", "note": "(centres unmarked) [Compound 262, 4-[4-(1-{4-[1-(2,6-Dioxo-piperidin-3-yl)-2-oxo-1,2-dihydro-benzo[cd]indol-6-ylmethyl]-phenyl}-cyclopropyl)-piperazin-1-yl]-3-fluoro-benzonitrile]", "pIC50": "> 9.00"}, {"compound": "O=C1CCC(N2C(=O)c3cccc4c(Cc5ccc(CN6CCOC(c7ccc(F)cc7)C6)cc5)ccc2c34)C(=O)N1", "note": "(centres unmarked) [Compound 119, 3-(6-(4-((2-(4-fluorophenyl)morpholino)methyl)benzyl)-2-oxobenzo[cd]indol-1(2H)-yl)piperidine-2,6-dione]", "pIC50": "> 9.00"}, {"compound": "O=C1CCC(N2C(=O)c3cccc4c(Cc5ccc(CN6CCN(S(=O)(=O)c7ccc(F)cc7)CC6)cc5)ccc2c34)C(=O)N1", "note": "(centres unmarked) [Compound 202, 3-[6-[[4-[[4-(4-fluorophenyl)sulfonylpiperazin-1-yl]methyl]phenyl]methyl]-2-oxo-benzoindol-1-yl]piperidine-2,6-dione]", "pIC50": "> 9.00"}, {"compound": "CC1(n2cc(Cc3ccc4c5c(cccc35)C(=O)N4C3CCC(=O)NC3=O)cn2)CCN(CC2(C#N)CC2)CC1", "note": "(centres unmarked) [Compound 102, 1-((4-(4-((1-(2,6-dioxopiperidin-3-yl)-2-oxo-1,2-dihydrobenzo[cd]indol-6-yl)methyl)-1H-pyrazol-1-yl)-4-methylpiperidin-1-yl)methyl)cyclopropane-1-carbonitrile]", "pIC50": "> 9.00"}, {"compound": "O=C1CCC(N2C(=O)c3cccc4c(Cc5cnn(C6CCN(C(=O)c7cccnc7)CC6)c5)ccc2c34)C(=O)N1", "note": "(centres unmarked) [Compound 43, 3-(6-((1-(1-nicotinoylpiperidin-4-yl)-1H-pyrazol-4-yl)methyl)-2-oxobenzo[cd]indol-1(2H)-yl)piperidine-2,6-dione]", "pIC50": "> 9.00"}, {"compound": "CC1(n2cc(Cc3ccc4c5c(cccc35)C(=O)N4C3CCC(=O)NC3=O)cn2)CCN(C(=O)C23COC(C2)C3)CC1", "note": "(centres unmarked) [Compound 71, 3-(6-{1-[4-Methyl-1-(2-oxa-bicyclo[2.1.1]hexane-4-carbonyl)-piperidin-4-yl]-1H-pyrazol-4-ylmethyl}-2-oxo-2H-benzo[cd]indol-1-yl)-piperidine-2,6-dione]", "pIC50": "> 9.00"}, {"compound": "O=C1CCC(N2C(=O)c3cccc4c(Cc5ccc(CN6Cc7ccccc7C6)cc5)ccc2c34)C(=O)N1", "note": "(centres unmarked) [Compound 117, 3-(6-(4-(isoindolin-2-ylmethyl)benzyl)-2-oxobenzo[cd]indol-1(2H)-yl)piperidine-2,6-dione]", "pIC50": "> 9.00"}, {"compound": "O=C1CCC(N2C(=O)c3cccc4c(Cc5ccc(CN6CCC7(CCCO7)CC6)cc5)cnc2c34)C(=O)N1", "note": "(centres unmarked) [Compound 222, 3-[23-[[4-(1-oxa-8-azaspiro[4.5]decan-8-ylmethyl)phenyl]methyl]-28-oxo-31,34-diazatricyclododeca-(2),1(21),7(23),22(24),25(31)-pentaen-34-yl]piperidine-2,6-dione]", "pIC50": "> 9.00"}]}, {"tested_on": "NCIH929.1 cells", "assay": "Cell viability assay for Table 2 (CellTiter-Glo 2.0, ATP quantification, 96 hr)", "format": "cell-based", "settings": "NCIH929.1 cell viability, 96 hr, top concentration 1 μM, 14 points half log titration; read-out: IC50", "source_text": "as §1, §2", "values": [{"compound": "O=C1CCC(N2C(=O)c3cccc4c(Cc5ccc(CN6CCN(S(=O)(=O)CC(F)(F)F)CC6)cc5)ccc2c34)C(=O)N1", "note": "(single isomer, unassigned) [Compound 160, 3-(2-Oxo-6-{4-[4-(2,2,2-trifluoro-ethanesulfonyl)-piperazin-1-ylmethyl]-benzyl}-2H-benzo[cd]indol-1-yl)-piperidine-2,6-dione]", "pIC50": "> 9.00"}, {"compound": "CC1(CN2CCC(n3cc(Cc4ccc5c6c(cccc46)C(=O)N5C4CCC(=O)NC4=O)cn3)CC2)CC1", "note": "(single isomer, unassigned) [Compound 235, 3-[6-[[1-[1-[(1-methylcyclopropyl)methyl]-4-piperidyl]pyrazol-4-yl]methyl]-2-oxo-benzo[cd]indol-1-yl]piperidine-2,6-dione]", "pIC50": "> 9.00"}, {"compound": "CC(C1CCC1)N1CCC(n2cc(Cc3ccc4c5c(cccc35)C(=O)N4C3CCC(=O)NC3=O)cn2)CC1", "note": "(single isomer, unassigned) [Compound 281, 3-[6-[[1-[1-[1-cyclobutylethyl]-4-piperidyl]pyrazol-4-yl]methyl]-2-oxo-benzo[cd]indol-1-yl]piperidine-2,6-dione]", "pIC50": "> 9.00"}, {"compound": "CC(C1CC1)N1CCC(n2cc(Cc3ccc4c5c(cccc35)C(=O)N4C3CCC(=O)NC3=O)cn2)CC1", "note": "(single isomer, unassigned) [Compound 283, 3-(6-((1-(1-(1-cyclopropylethyl)piperidin-4-yl)-1H-pyrazol-4-yl)methyl)-2-oxobenzo[cd]indol-1(2H)-yl)piperidine-2,6-dione]", "pIC50": "> 9.00"}]}]}
